Source: ChEMBL document CHEMBL5321229, “Conformationally locked sugar derivatives and analogues as potential neuraminidase inhibitors” (Eur J Med Chem, 2023)

What was measured:
[1] = Inhibition of influenza A virus A/Anhui/1/2005 H5N1 using MUNANA as substrate preincubated for 45 mins followed by substrate addition by fluorescence based assay
Influenza A virus [2] = assay: Antiviral activity against oseltamivir sensitive wild type Influenza A virus A/Brisbane/59/2007 infected infected in dog MDCK cells assessed as inhibition of viral growth incubated for 4 days by neutral red dye-based assay; type: functional; conditions: A/Brisbane/59/2007, MDCK, 96 h, time 4 day, read-out: ED50 (the source's name)
[3] = Binding affinity to influenza A virus A/HongKong/156/97 (H5N1) neuraminidase using fluorogenic MUN as substrate assessed as inhibition constant
Neuraminidase = Neuraminidase (Influenza A virus, UniProt B4URF0); assay: Inhibition of influenza A virus neuraminidase
[4] = Inhibition of Newcastle disease virus neuraminidase using 4-MUNeu5Ac as substrate assessed as reduction in neuraminidase activity incubated for 15 mins by spectrofluorometric analysis
[5] = target: Neuraminidase (Influenza A virus (A/Puerto Rico/8/1934(H1N1)), UniProt P03468); assay: Binding affinity to influenza A virus H1N1 (A/Norway/1758/07) neuraminidase using MUNANA as substrate assessed as inhibition constant
[6] = Inhibition of Influenza A virus H7N9 VLP neuraminidase using MUNANA as substrate
Influenza B virus = assay: Antiviral activity against Influenza B virus; type: functional, organism-based
Influenza A virus [7] = assay: Antiviral activity against Influenza A virus; type: functional, organism-based
[8] = Inhibition of hPIV-3 Haemagglutinin-neuraminidase infected in human red blood cells incubated for 90 mins by haemagglutination assay; type: cell-based, RBC; conditions: Human respirovirus 3, Erythrocyte, 1.5 h
Influenza A virus [9] = assay: Antiviral activity against influenza A virus A/Hong Kong/1/68 (HK1, H3N2) infected in dog MDCK cells assessed as cytopathic effect; type: functional, organism-based
[10] = Inhibition of influenza A virus A/Singapore/157 neuraminidase using 2'-(4-methylumbelliferyl)-alpha-D-acetylneuraminic acid as substrate incubated for 10 to 30 mins by fluorescence-based assay
[11] = Inhibition of influenza B virus B/Victoria/70 neuraminidase using 2'-(4-methylumbelliferyl)-alpha-D-acetylneuraminic acid as substrate incubated for 10 to 30 mins by fluorescence-based assay
[12] = Inhibition of influenza A virus H12N5 A/Duck/Alberta/60/1976 neuraminidase using MUNANA as substrate incubated for 30 mins followed by substrate addition by fluorescence based assay
[13] = target: Neuraminidase (Influenza A virus (A/Memphis/1/1971(H3N2)), UniProt P03471); assay: Inhibition of influenza A virus H3N2 (A/Moscow/10/99) neuraminidase using MUNANA as substrate preincubated for 30 mins followed by substrate addition by fluorescence-based assay
[14] = Inhibition of influenza A virus H5N1 (A/Anhui/2005) neuraminidase using fluorogenic MUNANA as substrate

Chain of Neuraminidase (B4URF0 whole entry): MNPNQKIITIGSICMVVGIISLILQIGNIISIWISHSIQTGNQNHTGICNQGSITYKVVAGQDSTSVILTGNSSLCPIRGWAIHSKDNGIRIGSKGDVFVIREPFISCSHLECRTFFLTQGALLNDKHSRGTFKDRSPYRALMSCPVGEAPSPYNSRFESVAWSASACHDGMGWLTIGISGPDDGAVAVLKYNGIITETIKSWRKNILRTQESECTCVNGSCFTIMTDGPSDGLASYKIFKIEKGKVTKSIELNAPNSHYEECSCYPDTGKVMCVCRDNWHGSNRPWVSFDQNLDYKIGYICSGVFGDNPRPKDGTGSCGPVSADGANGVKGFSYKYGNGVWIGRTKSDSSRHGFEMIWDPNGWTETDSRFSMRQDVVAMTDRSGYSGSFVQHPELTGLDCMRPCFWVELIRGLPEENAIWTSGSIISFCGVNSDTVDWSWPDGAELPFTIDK
Chain of Neuraminidase (Influenza A virus (A/Puerto Rico/8/1934(H1N1)), UniProt P03468) (P03468 whole entry): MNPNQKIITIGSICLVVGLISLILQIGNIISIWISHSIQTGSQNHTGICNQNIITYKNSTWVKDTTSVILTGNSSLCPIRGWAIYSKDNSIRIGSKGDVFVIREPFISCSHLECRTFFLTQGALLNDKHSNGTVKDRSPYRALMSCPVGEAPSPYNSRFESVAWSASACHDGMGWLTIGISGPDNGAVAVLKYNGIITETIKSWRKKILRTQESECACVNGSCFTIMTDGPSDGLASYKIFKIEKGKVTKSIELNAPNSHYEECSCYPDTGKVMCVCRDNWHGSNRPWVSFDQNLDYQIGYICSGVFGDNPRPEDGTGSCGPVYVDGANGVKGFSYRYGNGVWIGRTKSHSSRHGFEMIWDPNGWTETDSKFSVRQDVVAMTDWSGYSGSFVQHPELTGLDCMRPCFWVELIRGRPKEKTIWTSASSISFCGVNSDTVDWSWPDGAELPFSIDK
Chain of Neuraminidase (Influenza A virus (A/Memphis/1/1971(H3N2)), UniProt P03471) (P03471 whole entry): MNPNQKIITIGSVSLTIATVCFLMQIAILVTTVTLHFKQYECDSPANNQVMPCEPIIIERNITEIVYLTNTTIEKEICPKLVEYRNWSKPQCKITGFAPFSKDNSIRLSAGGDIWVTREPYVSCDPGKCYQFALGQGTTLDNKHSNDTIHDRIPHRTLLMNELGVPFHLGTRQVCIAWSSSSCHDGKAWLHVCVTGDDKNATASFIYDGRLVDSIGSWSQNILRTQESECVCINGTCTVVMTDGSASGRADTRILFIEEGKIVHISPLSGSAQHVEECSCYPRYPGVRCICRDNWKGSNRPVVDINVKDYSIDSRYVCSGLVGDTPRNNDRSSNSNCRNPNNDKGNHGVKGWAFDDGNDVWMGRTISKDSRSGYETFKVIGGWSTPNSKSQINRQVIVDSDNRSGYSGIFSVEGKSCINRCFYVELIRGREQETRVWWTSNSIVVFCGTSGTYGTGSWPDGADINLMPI

CCC(CC)O[C@@H]1C2C([C@@H]2C(=O)O)[C@@H](O)[C@H]1NC(C)=O (stereo partly specified)
IC50 [1]: 10 µM

CCC(CC)O[C@@H]1CC(C(=O)O)=C[C@H](NC(=N)N)[C@H]1NC(C)=O
EC50 (Influenza A virus [2]): 3.9 µM

CC(=O)N[C@H]1[C@H]([C@H](O)[C@H](O)CO)OC(C(=O)O)=C(C/C=C/c2cccc3ccccc23)[C@@H]1O
Ki [3]: 9.3 µM

CO[C@@H]([C@@H]1OC(C(=O)O)=C[C@H](NC(=N)N)[C@H]1NC(C)=O)[C@H](O)CO
IC50 (Neuraminidase): 0.0176 µM

[N-]=[N+]=N[C@H]1C=C(C(=O)O)O[C@@H]([C@@H](O)[C@H](O)CO)[C@H]1NC(=O)C(F)(F)F
IC50 [4]: 0.03 µM

CCC(CC)O[C@@H]1CC(C(=O)O)=C[C@H](N)[C@H]1NC(C)=O
EC50 (Influenza A virus [2]): 12 µM

CCC(CC)O[C@@H]1C2C([C@@H]2C(=O)O)[C@@H](NCc2ccccc2)[C@H]1NC(C)=O (stereo partly specified)
IC50 [1]: 10 µM

CCC(CC)O[C@@H]1C=C(P(=O)(O)OC[C@H]2O[C@@H](OC)[C@H](O)[C@@H](O)[C@H]2O)C[C@H](N)[C@H]1NC(C)=O
Ki [5]: 0.00074 µM

N=C(N)N[C@@H]1[C@@H](NC(=O)C(F)(F)F)[C@H]([C@H](OC(=O)NCCn2cc(COC[C@H]3O[C@@H](O[C@H]4[C@H](OCc5cn(CCNC(=O)O[C@@H]([C@@H]6O[C@@](F)(C(=O)O)[C@H](F)[C@H](NC(=N)N)[C@H]6NC(=O)C(F)(F)F)[C@H](O)CO)nn5)[C@@H](OCc5cnnn5CCNC(=O)O[C@@H]([C@@H]5O[C@@](F)(C(=O)O)[C@H](F)[C@H](NC(=N)N)[C@H]5NC(=O)C(F)(F)F)[C@H](O)CO)[C@H](OCc5cn(CCNC(=O)O[C@@H]([C@@H]6O[C@@](F)(C(=O)O)[C@H](F)[C@H](NC(=N)N)[C@H]6NC(=O)C(F)(F)F)[C@H](O)CO)nn5)O[C@@H]4COCc4cn(CCNC(=O)O[C@@H]([C@@H]5O[C@@](F)(C(=O)O)[C@H](F)[C@H](NC(=N)N)[C@H]5NC(=O)C(F)(F)F)[C@H](O)CO)nn4)[C@H](OCc4cn(CCNC(=O)O[C@@H]([C@@H]5O[C@@](F)(C(=O)O)[C@H](F)[C@H](NC(=N)N)[C@H]5NC(=O)C(F)(F)F)[C@H](O)CO)nn4)[C@@H](OCc4cn(CCNC(=O)O[C@@H]([C@@H]5O[C@@](F)(C(=O)O)[C@H](F)[C@H](NC(=N)N)[C@H]5NC(=O)C(F)(F)F)[C@H](O)CO)nn4)[C@H]3OCc3cn(CCNC(=O)O[C@@H]([C@@H]4O[C@@](F)(C(=O)O)[C@H](F)[C@H](NC(=N)N)[C@H]4NC(=O)C(F)(F)F)[C@H](O)CO)nn3)nn2)[C@H](O)CO)O[C@@](F)(C(=O)O)[C@@H]1F
IC50 [6]: 0.0306 µM

CNC(=N)N[C@H]1C=C(C(=O)O)O[C@@H]([C@H](O)[C@H](O)CO)[C@@H]1NC(C)=O
IC50 (Influenza B virus): 4.59 µM
IC50 (Influenza A virus [7]): 4.59 µM

CCCO[C@@H]([C@@H]1OC(C(=O)O)=C[C@H](N=C(N)N)[C@H]1NC(C)=O)[C@H](O)CO
IC50 (Neuraminidase): 0.0818 µM

Cc1ccc(C(=O)N[C@H]2C=C(C(=O)O)O[C@@H]([C@@H](O)[C@H](O)CO)[C@H]2NC(=O)C(F)(F)F)cc1
IC50 [4]: 0.03 µM

CCC(CC)O[C@@H]1C2C([C@@H]2C(=O)O)[C@@H](NCc2ccc(-c3ccccc3)cc2)[C@H]1NC(C)=O (stereo partly specified)
IC50 [1]: 10 µM

CCO[C@@H]([C@@H]1OC(C(=O)O)=C[C@H](N=C(N)N)[C@H]1NC(C)=O)[C@H](O)CO
IC50 (Neuraminidase): 0.0733 µM

CC(=O)N[C@H]1[C@H]([C@H](O)[C@H](O)CO)OC(C(=O)O)=C[C@@H]1NC(=N)NO
IC50 (Influenza B virus): 4.59 µM
IC50 (Influenza A virus [7]): 4.59 µM

CCCCCCCCCCCCO[C@@H]([C@@H]1OC(C(=O)O)=C[C@H](N=C(N)N)[C@H]1NC(C)=O)[C@H](O)CO
IC50 (Neuraminidase): 0.0992 µM

CC(=O)N[C@H]1[C@H]([C@H](O)[C@H](O)CO)OC(C(=O)O)=C[C@@H]1NC(=N)NN
IC50 (Influenza B virus): 4.59 µM
IC50 (Influenza A virus [7]): 4.59 µM

CC(C)C(=O)N[C@H]1[C@H]([C@H](O)[C@H](O)CO)OC(C(=O)O)=C(n2cc(-c3ccccc3C(=O)O)nn2)[C@@H]1O
IC50 [8]: 3.9 µM

CCC(CC)O[C@@H]1C=C(P(=O)(O)O[C@H]2[C@@H](O)[C@@H](CO)O[C@@H](OC)[C@@H]2O)C[C@H](N)[C@H]1NC(C)=O
Ki [5]: 0.00029 µM

CCCCCO[C@@H]([C@@H]1OC(C(=O)O)=C[C@H](N=C(N)N)[C@H]1NC(C)=O)[C@H](O)CO
IC50 (Neuraminidase): 0.0356 µM

CCC(CC)O[C@@H]1C=C(C(=O)O)[C@@H](n2cc(C(O)CC)nn2)[C@H](N)[C@H]1NC(C)=O (stereo partly specified)
IC50 (Influenza A virus [9]): 0.1 µM

CCC(CC)[C@H](NC(C)=O)[C@@H]1C[C@@H](C(=O)O)C[C@H]1N=C(N)N
IC50 [10]: < 0.01 µM
IC50 [11]: < 0.01 µM

CCOC(=O)NC(=N)N[C@H]1C=C(C(=O)O)O[C@@H]([C@H](O)[C@H](O)CO)[C@@H]1NC(C)=O
IC50 (Influenza B virus): 4.59 µM
IC50 (Influenza A virus [7]): 4.59 µM

CCC(CC)O[C@@H]1C=C(C(=O)O)C[C@H](n2nncc2-c2cccc(N)c2)[C@H]1NC(C)=O
IC50 [12]: 0.045 µM
IC50 [13]: 0.019 µM

O=C(O)C1=C[C@H](NC(=O)C(F)(F)F)[C@H](NC(=O)C(F)(F)F)[C@H]([C@@H](O)[C@H](O)CO)O1
IC50 [4]: 0.03 µM

CC(=O)N[C@H]1[C@H]([C@H](O)[C@H](O)CO)OC(C(=O)O)=C[C@@H]1NC(=N)N[N+](=O)[O-]
IC50 (Influenza B virus): 4.59 µM
IC50 (Influenza A virus [7]): 4.59 µM

CCC(CC)O[C@@H]1C=C(C(=O)O)C[C@H](NS(C)(=O)=O)[C@H]1NC(C)=O
IC50 [14]: 3.5 µM

[N-]=[N+]=N[C@H]1C=C(C(=O)O)O[C@@H]([C@@H](O)[C@H](O)CO)[C@H]1NC(=O)C(F)(F)C(F)(F)C(F)(F)F
IC50 [4]: 0.03 µM

CCCCCCCCO[C@@H]([C@@H]1OC(C(=O)O)=C[C@H](N=C(N)N)[C@H]1NC(C)=O)[C@H](O)CO
IC50 (Neuraminidase): 0.0455 µM
